Converted amounts (≈) assume the structure as drawn. Like-named read-outs stand apart in the source and are kept apart here.
Experiments:
[1] = biological target: T1, human EP2 receptors (Homo sapiens, UniProt P43116); test: cell-based cAMP TR-FRET assay, rightward shift of PGE2 concentration response curve (Schild KB), EP2; details: for mechanism of antagonism of EP2: Schild regression analysis
T1 construct: expressed in transfected cells
Description: KB value indicates the antagonist concentration required for a twofold rightward shift in the PGE2 dose-response curve. Thus, a lower KB value indicates a higher inhibitory potency.
(§1) The synthesis was carried out starting from commercially available 2-methyl indole or 2-trifluoromethyl indoles (11a-c), which on treatment with bromoacetonitrile provided intermediates (12a-c), which then were subjected to lithium aluminum hydride to reduce cyanide to amines. […] Synthesized derivatives were tested by using a cAMP-derived TR-FRET assay, at single concentration (1 μM) to observe a rightward shift of PGE2 (an EP2 agonist) concentration response curve in a C6G cell line that overexpresses human EP2 receptors.
A lower KB value indicates a higher inhibitory potency.
(§2) Intracellular cAMP was measured with a cell-based homogeneous time-resolved fluorescence resonance energy transfer (TR-FRET) method (Cisbio Bioassays). […] Endogenous cAMP produced by cells competes with labeled cAMP for binding to the cAMP antibody and thus reduces the FRET signal. Cells stably expressing human DP1, EP2, EP4, or IP receptors were seeded into 384-well plates in 30 μl complete medium (4,000 cells/well) and grown overnight. The medium was carefully withdrawn and 10 μl Hanks' Buffered Salt Solution (HBSS) (Hyclone) containing 20 μM rolipram was added into the wells to block phosphodiesterases. The cells were incubated at room temperature for 0.5-1 h and then treated with vehicle or test compound for 10 min before addition of increasing concentrations of appropriate agonist: BW245C for DP1, PGE2 for EP2 and EP4, or iloprost for IP. The cells were incubated at room temperature for 40 min, then lysed in 10 μl lysis buffer containing the FRET acceptor cAMP-d2 and 1 min later another 10 μl lysis buffer with anti-cAMP-Cryptate was added. After 60-90 min incubation at room temperature, the FRET signal was measured by an Envision 2103 Multilabel Plate Reader (PerkinElmer Life Sciences) with a laser excitation at 337 nm and dual emissions at 665 nm and 590 nm for d2 and Cryptate (50 s delay), respectively. The FRET signal was expressed as: F665/F590×10^4.

[2] = biological target: T2, human EP4 receptors (Homo sapiens, UniProt P35408); test: cell-based cAMP TR-FRET assay, EP4 (agonist PGE2); details: for potency estimated from few doses / Selective Index EP4/EP2: Table 2; for potency estimated from few doses: extrapolated Schild KB from single concentration of 10 μM
T2 construct: expressed in transfected cells
T2 sequence (P35408 whole entry): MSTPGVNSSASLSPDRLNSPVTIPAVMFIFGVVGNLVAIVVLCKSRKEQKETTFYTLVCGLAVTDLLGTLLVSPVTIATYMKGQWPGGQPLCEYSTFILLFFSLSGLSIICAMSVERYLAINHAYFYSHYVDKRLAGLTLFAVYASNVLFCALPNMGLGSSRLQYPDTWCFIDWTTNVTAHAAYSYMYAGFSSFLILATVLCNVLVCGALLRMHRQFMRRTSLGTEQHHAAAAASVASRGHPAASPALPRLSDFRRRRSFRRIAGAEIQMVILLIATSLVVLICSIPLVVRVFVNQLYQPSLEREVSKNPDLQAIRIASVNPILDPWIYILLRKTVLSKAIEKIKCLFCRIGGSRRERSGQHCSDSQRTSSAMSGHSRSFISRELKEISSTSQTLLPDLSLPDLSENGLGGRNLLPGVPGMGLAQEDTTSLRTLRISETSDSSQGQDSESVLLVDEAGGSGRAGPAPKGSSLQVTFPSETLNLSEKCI
Description: (§3) These derivatives were selected for testing against EP4 and IP receptors. Cell lines were created that overexpress EP4 receptors, or IP receptors on C6-glioma cells. A cAMP-derived TR-FRET assay was developed using agonists PGE2 (for EP4) and iloprost (for IP), similar to EP2 assay.
as §2

[3] = biological target: T3, human DP1 receptors (Homo sapiens, UniProt Q13258); test: cell-based cAMP TR-FRET assay, DP1 (agonist BW245C); details: for Kb / Selective Index (DP1/EP2): Table 2; for Kb: read-out: KB DP1; for selectivity against DP1: EP2 over DP1
T3 construct: expressed in transfected cells
T3 sequence (Q13258 1-359): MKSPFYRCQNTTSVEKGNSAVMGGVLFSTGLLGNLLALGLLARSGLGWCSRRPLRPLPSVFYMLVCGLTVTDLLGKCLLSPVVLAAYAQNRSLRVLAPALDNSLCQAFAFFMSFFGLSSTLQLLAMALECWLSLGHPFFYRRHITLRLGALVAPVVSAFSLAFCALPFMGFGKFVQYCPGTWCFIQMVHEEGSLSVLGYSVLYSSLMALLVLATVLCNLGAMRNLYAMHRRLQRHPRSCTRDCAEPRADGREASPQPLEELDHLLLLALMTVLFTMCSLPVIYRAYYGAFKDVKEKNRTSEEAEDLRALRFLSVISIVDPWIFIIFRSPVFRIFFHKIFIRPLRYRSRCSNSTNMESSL
Description: as §1
as §2, with “After 60-90 min incubation at room temperature, the FRET signal was measured by an Envision 2103 Multilabel Plate Reader (PerkinElmer Life Sciences) with a laser excitation at 337 nm and dual emissions at 665 nm and 590 nm for d2 and Cryptate (50 s delay), respectively.” left out

[4] = biological target: T4, human IP receptors (Homo sapiens, UniProt P43119); test: cell-based cAMP TR-FRET assay, IP (agonist iloprost); details: for potency estimated from few doses / Selective Index (IP/EP2): Table 2; for potency estimated from few doses: extrapolated Schild KB from single concentration of 10 μM
T4 construct: expressed in transfected cells
T4 sequence (P43119 whole entry): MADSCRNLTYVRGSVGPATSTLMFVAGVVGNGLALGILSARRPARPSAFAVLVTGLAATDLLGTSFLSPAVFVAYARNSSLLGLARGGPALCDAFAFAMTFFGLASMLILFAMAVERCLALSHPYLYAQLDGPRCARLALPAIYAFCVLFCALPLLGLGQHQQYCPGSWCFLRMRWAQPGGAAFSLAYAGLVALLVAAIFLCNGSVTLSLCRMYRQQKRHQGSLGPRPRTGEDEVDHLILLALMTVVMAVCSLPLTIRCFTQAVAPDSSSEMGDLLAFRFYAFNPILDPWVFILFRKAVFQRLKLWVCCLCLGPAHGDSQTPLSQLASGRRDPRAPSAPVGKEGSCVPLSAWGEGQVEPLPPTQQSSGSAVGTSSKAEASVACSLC
Description: as §3, §2

[5] = system: C6-glioma cells
Description: (§4) CC50 are average one measurement run in triplicate.
(§5) Several of compounds were examined against EP4 and IP receptors at single concentration of 10 μM.

[6] = aqueous solubility by nephelometry; details: for aqueous solubility (in words): PBS buffer (pH 7.4) with 1% DMSO, nephelometry
[7] = in vitro; details: rat
Description: as §4, §5

[8] = liver microsomal stability, human
[9] = liver microsomal stability, mouse
[10] = Table 1, Schild KB from single antagonist concentration 1 μM, average of 2-3 measurements in duplicate, read-out: EP2 KB
[11] = Table 2, average of 2-3 independent experiments in duplicate, read-out: KB EP2
[12] = single concentration values, read-out: EP2 potency (Schild KB)
[13] = Table 3, PBS buffer (pH 7.4) with 1% DMSO by nephelometry

T1 sequence (P43116 whole entry): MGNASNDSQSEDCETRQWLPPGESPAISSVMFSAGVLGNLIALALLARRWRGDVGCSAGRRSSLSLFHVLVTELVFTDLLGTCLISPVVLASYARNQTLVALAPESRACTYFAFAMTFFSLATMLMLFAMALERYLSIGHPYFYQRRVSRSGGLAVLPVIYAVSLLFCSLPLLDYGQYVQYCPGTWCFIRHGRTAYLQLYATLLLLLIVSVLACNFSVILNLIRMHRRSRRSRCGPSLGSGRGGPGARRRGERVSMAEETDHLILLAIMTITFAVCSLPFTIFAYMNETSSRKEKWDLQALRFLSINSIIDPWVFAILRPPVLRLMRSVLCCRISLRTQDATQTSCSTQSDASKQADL

Compound | Kb [1, 10] [µM] | potency estimated from few doses [2] [µM] | Kb [3] [µM] | potency estimated from few doses [4] [µM] | CC50 ([5]; rat) [µM] | Selective Index EP4/EP2 [2] | Selective Index (DP1/EP2) [3] | Selective Index (IP/EP2) [4] | Therapeutic Index (CC50/EP2 KB) ([5]; rat) | Solubility [6, 13] [µM] | also measured
Cc1cc2ccccc2n1CCNC(=O)c1ccc(N(C)C)cc1 [Compound 6e, 4-(Dimethylamino)-N-(2-(2-methyl-1H-indol-1-yl)ethyl)benzamide] | 0.0098 | 51 | 6.43 | 4.7 | 310 | – | – | – | – | – | –
CCN(CC)c1ccc(C(=O)NCCn2c(C)cc3ccccc32)cc1 [Compound 6f, 4-(Diethylamino)-N-(2-(2-methyl-1H-indol-1-yl)ethyl)benzamide] | – | 31.3 | 3.19 | 8 | 320 | 11,590 | 1,220 | 2,960 | 118,520 | – | fold improved/higher EP2 potency in comparison to 6b [1]: ~8 fold; mechanism of antagonism of EP2 [1]: competitive; Kb [1, 11]: 0.0027 µM; Kb [1, 12]: ~0.01 µM; selectivity against DP1 [3]: > 1200 fold; selectivity against the IP receptor ([4]; EP2 over IP): ~3000 fold
Cc1cc2ccccc2n1CCNC(=O)c1ccc(N2CCCC2)cc1 [Compound 7j, N-(2-(2-Methyl-1H-indol-1-yl)ethyl)-4-(pyrrolidin-1-yl)benzamide] | – | 28.7 | > 10 | 14.2 | 337 | 1,160 | >516 | 570 | 16,120 | – | Kb [1, 11]: 0.0247 µM; selectivity against DP1 [3]: 516 fold
Cc1cc2ccccc2n1CCNC(=O)c1ccc(N2CCCCC2)cc1 [Compound 7k, N-(2-(2-Methyl-1H-indol-1-yl)ethyl)-4-(piperidin-1-yl)benzamide] | 0.0094 | 30.2 | 2.57 | 3.4 | 315 | 3,210 | 273 | 360 | 33,510 | – | fold improved/higher EP2 potency in comparison to 6b [1]: about 2.3 fold
Cc1cc2ccccc2n1CCNC(=O)c1ccc(N2CCC(C(=O)O)CC2)cc1 [Compound 7n] | 0.0897 | – | – | – | – | – | – | – | – | – | aqueous solubility (in words) [6]: high aqueous solubility
Cc1cc2ccccc2n1CCNC(=O)c1ccc(N2CCOCC2)cc1 [Compound 7p, N-(2-(2-Methyl-1H-indol-1-yl)ethyl)-4-morpholinobenzamide] | 0.0096 | 21 | 5.21 | 1.98 | 289 | 2,190 | 533 | 206 | 30,100 | – | fold improved/higher EP2 potency in comparison to 6b [1]: about 2.3 fold; mechanism of antagonism of EP2 [1]: competitive
Cc1cc2ccccc2n1CCNC(=O)c1ccc(N2CCOCC2)c(F)c1 [Compound 7t] | – | 14.5 | – | 5.6 | – | 565 | 85 | 217 | >19,450 | – | selectivity over EP4 ([2]; EP2 over EP4): ~600 fold; CC50 [7]: > 500 µM
Cc1cc2ccccc2n1CCNC(=O)c1ccc(-c2nnn[nH]2)cc1 [Compound 7z] | – | > 10000 | – | > 10000 | – | – | – | – | – | – | CC50 [7]: > 300 µM; aqueous solubility (in words) [6]: high aqueous solubility
Cc1cc2ccccc2n1CCNC(=O)c1ccc2c(c1)n(C)c(=O)n2C [Compound 8a, 1,3-Dimethyl-N-(2-(2-methyl-1H-indol-1-yl)ethyl)-2-oxo-2,3-dihydro-1H-benzo[d]imidazole-5-carboxamide] | 0.0209 | 36.1 | 6.29 | 25.2 | 154 | 1730 | 300 | 1200 | 7,370 | – | concentration showing an effect on cell viability ([5]; rat): > 100 µM
CCN(CC)c1ccc(C(=O)NCCc2c(C)[nH]c3ccccc23)cc1 [Compound 9a, 4-(Diethylamino)-N-(2-(2-methyl-1H-indol-3-yl)ethyl)benzamide] | 0.0069 | 48 | 9.48 | > 10000 | – | 6,945 | 1374 | – | >72,460 | – | mechanism of antagonism of EP2 [1]: competitive; Kb [1, 12]: ~0.01 µM; CC50 [7]: > 500 µM
COc1cc(/C=C/C(=O)NCCn2c(C)cc3ccccc32)cc(OC)c1OC [Compound 15a] | – | – | – | – | – | – | – | – | – | 45 (≈ 17.8 µg/mL) | CC50 ([5]; read-out: Cytotoxicity (CC50), Table 4): 172 µM; % of Parent Compound Remaining at 60 min vs. T = 0 min, Human Liver Microsomes ([8]; 1 μM): 0.1%; % of Parent Compound Remaining at 60 min vs. T = 0 min, Human Liver Microsomes ([8]; 10 μM): 10.6%; % of Parent Compound Remaining at 60 min vs. T = 0 min, Mouse Liver Microsomes ([9]; 1 μM): 0.2%; % of Parent Compound Remaining at 60 min vs. T = 0 min, Mouse Liver Microsomes ([9]; 10 μM): 4.8%; % remaining at 60 minutes in mouse liver microsomes ([9]; at 1 μM concentration): 0.2%
COc1cc(/C=C/C(=O)NCCn2c(CN3CCOCC3)cc3ccccc32)cc(OC)c1OC [Compound 15l] | – | – | – | – | – | – | – | – | – | 91 (≈ 43.6 µg/mL) | –
COc1cc(/C=C/C(=O)NCCn2c(CNC3CCN(C)CC3)cc3ccccc32)cc(OC)c1OC [Compound 15m] | – | – | – | – | – | – | – | – | – | 180 (≈ 91.2 µg/mL) | –
Cc1[nH]c2ccccc2c1CCNC(=O)/C=C/c1ccc(OCCO)c(OCCO)c1 [Compound 16c, (E)-3-(3,4-bis(2-hydroxyethoxy)phenyl)-N-(2-(2-methyl-1H-indol-3-yl)ethyl)acrylamide] | – | – | – | – | – | – | – | – | – | 235 (≈ 99.8 µg/mL) | % of Parent Compound Remaining at 60 min vs. T = 0 min, Human Liver Microsomes ([8]; 1 μM): 58.5%; % of Parent Compound Remaining at 60 min vs. T = 0 min, Human Liver Microsomes ([8]; 10 μM): 70.4%; % of Parent Compound Remaining at 60 min vs. T = 0 min, Mouse Liver Microsomes ([9]; 1 μM): 7.1%; % of Parent Compound Remaining at 60 min vs. T = 0 min, Mouse Liver Microsomes ([9]; 10 μM): 19.3%; aqueous solubility (in words) [6]: very soluble
Cc1[nH]c2ccccc2c1CCNC(=O)/C=C/c1ccc(OCCO)cc1 [Compound 16d] | – | – | – | – | – | – | – | – | – | – | Kb ([1]; Table 3, Schild KB from single concentration 1 μM, read-out: EP2 KB): 0.0136 µM; Kb ([1]; Table 4, read-out: KB EP2): 0.0136 µM; Kb [1, 12]: 0.0114 to 0.0136 µM; CC50 [7]: 81.7 µM; Solubility ([6]; PBS buffer, pH 7.4, aqueous buffer, kinetic from dmso stock): 68 µM (≈ 24.8 µg/mL)
Cc1cc2ccccc2n1CCNC(=O)/C=C/c1ccc(OCCCO)cc1 [Compound 16e] | – | – | – | – | – | – | – | – | – | 66 (≈ 25 µg/mL) | –

Reference: US11077120B2, “Prostaglandin receptor EP2 antagonists, derivatives, compositions, and uses related thereto” (Emory University, priority 2014, dated 2021)
